Assay results taken from paper PMC9939733 (The Journal of Biological Chemistry, 2023).
Where a chain is given by its changes, count along the chain named. “And” between values parts separate entries of the source, which are not always exact repeats. Identical values can stand only once. Like-named read-outs stand apart in the source and are kept apart here.

Columns and labels:
R172K IDH2 [1] = target: T1, R172K IDH2 (Homo sapiens, UniProt P48735, R172K); experiment: Absorbance assay, IC50 determination; format: biochemical
T1 construct: made in house; host or cells: Sf21 insect cells (cell pellets prepared at Evotec)
T1 sequence (P48735 40-452 R172K): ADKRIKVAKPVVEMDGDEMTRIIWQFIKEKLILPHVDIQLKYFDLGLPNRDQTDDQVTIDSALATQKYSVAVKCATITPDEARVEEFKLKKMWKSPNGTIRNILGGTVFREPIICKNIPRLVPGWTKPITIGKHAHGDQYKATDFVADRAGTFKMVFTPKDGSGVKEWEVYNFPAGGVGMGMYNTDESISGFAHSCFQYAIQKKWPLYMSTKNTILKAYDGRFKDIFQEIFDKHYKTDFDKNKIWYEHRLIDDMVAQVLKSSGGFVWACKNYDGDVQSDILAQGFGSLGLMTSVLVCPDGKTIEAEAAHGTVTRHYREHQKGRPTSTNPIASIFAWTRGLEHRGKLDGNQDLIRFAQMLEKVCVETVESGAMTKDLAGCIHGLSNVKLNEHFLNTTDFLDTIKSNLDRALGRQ
Description: (§1) The reactivity of WT IDH1/2 and oncogenic IDH1/2 variants was assayed at ambient temperature by continuously monitoring the concentration-dependent change in absorbance ([…]) of NADPH using a PheraStar FS or a CLARIOstar Plus plate reader (BMG Labtech). Enzyme reactions (60 μL total reaction volume) were performed in clear 384-well UV-STAR plates (Greiner Bio-one, #781801). Compounds were dispensed using a CyBio SDW-CW CyBi-Well Simultaneous Pipettor and assay started using a ThermoFisher Multidrop Combi reagent dispenser.
(§2) Final assay concentrations were as follows: 30 nM IDH1/2 variant and 50 μM NADPH. […] Reactions were performed as technical quadruplicates, and all assays were carried out in two independent duplicates. GraphPad Prism (version 5.04) was used for data analysis and to determine the IC50 values.

R140Q IDH2 [2] = target: T2, R140Q IDH2 (Homo sapiens, UniProt P48735, R140Q); experiment: Absorbance assay, IC50 determination; format: biochemical
T2 construct: made in house; host or cells: Sf21 insect cells (cell pellets prepared at Evotec)
T2 sequence (P48735 40-452 R140Q): T1 sequence (P48735 40-452 R172K) with R101Q, K133R
Description: as §1, §2

R132H IDH1 [3] = target: T3, R132H IDH1 (Homo sapiens, UniProt O75874, R132H); experiment: Absorbance assay (NADPH consumption), substrate turnover in the absence of 2OG; format: biochemical; set-up: made in house; host or cells: Escherichia coli BL21(DE3) pLyS; conditions: no 2OG; […] test compound, 0.03 μM R132H IDH1, 50 μM NADPH; 2OG = 100
T3 sequence (O75874 whole entry R132H): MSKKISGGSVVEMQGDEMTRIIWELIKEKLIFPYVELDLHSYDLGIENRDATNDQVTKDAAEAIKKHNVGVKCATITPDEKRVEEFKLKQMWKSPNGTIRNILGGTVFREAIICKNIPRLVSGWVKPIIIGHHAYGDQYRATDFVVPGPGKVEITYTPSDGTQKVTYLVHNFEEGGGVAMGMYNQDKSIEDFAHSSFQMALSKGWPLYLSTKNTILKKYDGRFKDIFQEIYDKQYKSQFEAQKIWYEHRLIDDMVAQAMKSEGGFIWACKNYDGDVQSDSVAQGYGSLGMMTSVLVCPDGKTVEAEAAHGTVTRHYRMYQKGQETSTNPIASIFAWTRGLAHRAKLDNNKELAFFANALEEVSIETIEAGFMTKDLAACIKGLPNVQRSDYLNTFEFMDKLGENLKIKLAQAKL
Method in brief: (§3)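 Quadruplicate technical repeats are run. Reaction start is by reagent dispenser.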

R132H IDH1 [4] = target: T3, R132H IDH1; experiment: Absorbance assay, IC50 determination; format: biochemical; set-up: made in house; host or cells: Escherichia coli BL21(DE3) pLyS
Description: as §1, §2

R172K IDH2 [5] = target: T1, R172K IDH2; experiment: Absorbance assay (NADPH consumption), substrate turnover in the absence of 2OG; format: biochemical; conditions: no 2OG; 1.0 mM test compound, 0.03 μM R172K IDH2, 50 μM NADPH; 2OG = 100
Method in brief: as §3

R140Q IDH2 [6] = target: T2, R140Q IDH2; experiment: as above; format: biochemical; conditions: no 2OG; 6.0 mM test compound, 0.03 μM R140Q IDH2, 50 μM NADPH; 2OG = 100
Method in brief: as §3

R132H IDH1 [7] = target: T3, R132H IDH1; experiment: Absorbance assay, variant activity in the presence of equimolar 2OG (inhibition screen); format: biochemical; set-up: made in house; host or cells: Escherichia coli BL21(DE3) pLyS; conditions: […] 2OG and […] test compound, 0.03 μM R132H IDH1, 50 μM NADPH
Method in brief: as §3

R172K IDH2 [8] = target: T1, R172K IDH2; experiment: as above; format: biochemical; conditions: for activity [%] (%-substrate conversion after 20 min incubation): 1.0 mM 2OG and 1.0 mM test compound, 0.03 μM R172K IDH2, 50 μM NADPH
Method in brief: as §3

R140Q IDH2 [9] = target: T2, R140Q IDH2; experiment: as above; format: biochemical; conditions: for activity [%] (%-substrate conversion after 20 min incubation): 6.0 mM 2OG and 6.0 mM test compound, 0.03 μM R140Q IDH2, 50 μM NADPH
Method in brief: as §3

WT IDH1 [10] = target: T4, WT IDH1 (Homo sapiens, UniProt O75874); experiment: Absorbance assay, WT activity in the presence of equimolar DL-isocitrate (inhibition); format: biochemical; conditions: […] isocitrate and […] test compound, 75 μM NADP+, 2.0 nM WT IDH1
T4 construct: made in house; host or cells: Escherichia coli BL21(DE3) pLyS
T4 sequence (O75874 whole entry): as the sequence (O75874 whole entry R132H) above, with H132R counted along it
Method in brief: as §3

WT IDH2 [11] = target: T5, WT IDH2 (Homo sapiens, UniProt P48735); experiment: as above; format: biochemical; conditions: […] isocitrate and […] test compound, 75 μM NADP+, 2.0 nM WT IDH2
T5 construct: made in house; host or cells: Sf21 insect cells (cell pellets prepared at Evotec)
T5 sequence (P48735 40-452): T1 sequence (P48735 40-452 R172K) with K133R
Method in brief: as §3

R172K IDH2 [12] = target: T1, R172K IDH2; experiment: Steady-state kinetics, absorbance assay; format: biochemical; conditions: 0.03 μM enzyme, 50 μM NADPH, 20 mM MgCl2, pH 8.0
Description: (§4) Compounds were dispensed using a CyBio SDW-CW CyBi-Well Simultaneous Pipettor and assay started using a ThermoFisher Multidrop Combi reagent dispenser.
(§5) Reactions were performed as technical duplicates, and all assays were carried out in two independent duplicates.

R140Q IDH2 [13] = target: T2, R140Q IDH2; experiment: Steady-state kinetics, absorbance assay; format: biochemical; conditions: 0.03 μM enzyme, 50 μM NADPH, 20 mM MgCl2, pH 8.0
Description: as §4, §5

WT IDH1 [14] = target: T4, WT IDH1; experiment: Absorbance assay, substrate activity in the absence of DL-isocitrate; format: biochemical; conditions: no DL-isocitrate; […] test compound, 75 μM NADP+, 2.0 nM WT IDH1; compared to DL-isocitrate
Method in brief: as §3

WT IDH2 [15] = target: T5, WT IDH2; experiment: as above; format: biochemical; conditions: no DL-isocitrate; […] test compound, 75 μM NADP+, 2.0 nM WT IDH2; compared to DL-isocitrate
Method in brief: as §3

R132C/S280F IDH1 = target: T6, R132C/S280F IDH1 (Homo sapiens, UniProt O75874, R132C/S280F); experiment: Steady-state kinetics, NADPH turnover assay; format: biochemical
T6 construct: made in house
T6 sequence (O75874 whole entry R132C/S280F): as the sequence (O75874 whole entry R132H) above, with H132C, S280F counted along it
Description: independent runs, each composed of technical duplicates (n = 2; mean ± SD); c) R132C/S280F IDH1 assays
monitoring NADPH turnover were performed as reported (3). […]

R132H IDH1 [16] = target: T3, R132H IDH1; experiment: Steady-state kinetics, absorbance assay; format: biochemical; set-up: made in house; host or cells: Escherichia coli BL21(DE3) pLyS; conditions: 0.03 μM enzyme, 50 μM NADPH, 20 mM MgCl2, pH 8.0
Description: as §4, §5

FIH = conditions: ref [22], [23]; cited from earlier work
AspH = conditions: ref [22], [23]; cited from earlier work
[17] = test system: glutamic oxaloacetic aminotransferase; set-up: method as in earlier work; conditions: ref [66]; cited from earlier work

Compound | activity [%] (%-substrate conversion after 20 min incubation) (R132H IDH1 [7]) | activity [%] (%-substrate conversion after 20 min incubation) (R172K IDH2 [8]) | activity [%] (%-substrate conversion after 20 min incubation) (R140Q IDH2 [9]) | activity [%] (%-substrate conversion after 20 min incubation) (WT IDH1 [10]) | activity [%] (%-substrate conversion after 20 min incubation) (WT IDH2 [11]) | Kmapp (R172K IDH2 [12]) | kcatapp (R172K IDH2 [12]) | Kmapp (R140Q IDH2 [13]) | kcatapp (R140Q IDH2 [13]) | activity [%] (%-substrate conversion after 20 min incubation) (WT IDH1 [14]) | activity [%] (%-substrate conversion after 20 min incubation) (WT IDH2 [15]) | Kmapp (R132C/S280F IDH1) | kcatapp (R132C/S280F IDH1) | Kmapp (R132H IDH1 [16]) | kcatapp (R132H IDH1 [16]) | inhibition of FIH (FIH) | other results
O=C(O)CNC(=O)C(=O)O [NOG, N-oxalylglycine, reference compound] | < 10% | 13 ± 4% | 12 ± 7% | 93 ± 2% | 93 ± 1% |  |  |  |  |  |  |  |  |  |  |  | IC50 (R172K IDH2 [1]): ~161 µM; IC50 (R140Q IDH2 [2]): ~621 µM; activity [%] (%-substrate conversion after 20 min incubation) (R132H IDH1 [3]): < 10%; IC50 (R132H IDH1 [4]): ~188 µM; activity [%] (%-substrate conversion after 20 min incubation) (R172K IDH2 [5]): < 10%; activity [%] (%-substrate conversion after 20 min incubation) (R140Q IDH2 [6]): < 10%; inhibition (R172K IDH2 [8]; equimolar 2OG (1.0 mM)): ≥ 90%; inhibition (R140Q IDH2 [9]; equimolar 2OG (6.0 mM)): ≥ 90%
CC(CC(=O)O)C(=O)C(=O)O (stereo not shown) [compound 1, 3-methyl-2OG] | 391 ± 20% | 151 ± 5% | 107 ± 4% | 94±1% | 97±3% | 4.2 ± 0.4 mM | 4.8 ± 0.2 s⁻¹ | 2.0 ± 0.8 mM and ~2.0 mM | 5.4 ± 0.3 s⁻¹ | < 10% | < 10% | 0.31 ± 0.01 mM | 20.2 ± 0.5 s⁻¹ | 3.7 ± 0.1 mM | 6.9 ± 0.4 s⁻¹ |  | 
CCCCC(CC(=O)O)C(=O)C(=O)O (stereo not shown) [compound 4, 3-butyl-2OG] | 376 ± 21% | 126 ± 3% | 753 ± 72% | 96±1% | 98±2% | 16 ± 5 mM | 7.8 ± 1.8 s⁻¹ and ~7.8 s⁻¹ | 3.8 ± 0.8 mM and 3.8 to 7.5 mM | 9.7 ± 0.4 s⁻¹ | < 10% | < 10% | 0.24 ± 0.01 mM | 15 ± 3 s⁻¹ | 5.7 ± 3.3 mM | 9.2 ± 0.4 s⁻¹ |  | 

Continued, in another order:

activity [%] (%-substrate conversion after 20 min incubation) (R132H IDH1 [7]) | activity [%] (%-substrate conversion after 20 min incubation) (R172K IDH2 [8]) | activity [%] (%-substrate conversion after 20 min incubation) (R140Q IDH2 [9]) | activity [%] (%-substrate conversion after 20 min incubation) (WT IDH1 [10]) | activity [%] (%-substrate conversion after 20 min incubation) (WT IDH2 [11]) | Kmapp (R172K IDH2 [12]) | kcatapp (R172K IDH2 [12]) | Kmapp (R140Q IDH2 [13]) | kcatapp (R140Q IDH2 [13]) | activity [%] (%-substrate conversion after 20 min incubation) (WT IDH1 [14]) | activity [%] (%-substrate conversion after 20 min incubation) (WT IDH2 [15]) | Kmapp (R132C/S280F IDH1) | kcatapp (R132C/S280F IDH1) | Kmapp (R132H IDH1 [16]) | kcatapp (R132H IDH1 [16]) | Compound | inhibition of FIH (FIH) | other results
< 10% | < 10% | < 10% | 98±2% | 96±2% |  |  |  |  | < 10% | < 10% |  |  |  |  | CC1(C)c2ccccc2-c2ccc(CC(CC(=O)O)C(=O)C(=O)O)cc21 (racemic) [compound 11] | potent inhibitor | IC50 (R172K IDH2 [1]; 1.0 mM 2OG, 0.03 μM enzyme, 50 μM NADPH): ~84 µM; IC50 (R140Q IDH2 [2]; 6.0 mM 2OG, 0.03 μM enzyme, 50 μM NADPH): ~1650 µM; IC50 (R132H IDH1 [4]; […] 2OG, 0.03 μM enzyme, 50 μM NADPH): ~1100 µM
118 ± 20% | 106 ± 6% | 117 ± 6% | 106±4% | 101±7% |  |  |  |  | < 10% | < 10% |  |  |  |  | CC(C)(CC(=O)C(=O)O)C(=O)O [compound 13, 4,4-dimethyl-2OG] | does not inhibit | inhibition of AspH (AspH): efficient inhibitor; substrate efficiency compared with 2OG [17]: less efficient substrate
